We go through 48 compounds from patent US8592422B2, “Bicyclic triazole and pyrazole lactams as allosteric modulators of mGluR5 receptors” (Vanderbilt University, priority 2010, dated 2013).

This experiment concerns the target T1, human mGluR5a receptor (Homo sapiens, UniProt P41594).
T1 construct: cDNA subcloned into pcDNA3.1(-)
Description: Cell-based functional Ca2+ mobilization assay (FDSS), potentiation of glutamate EC20 response. The settings on record: for pEC50 / EC50: HEK cells transfected with human mGluR5 (H10H or H12H), in presence of EC20 glutamate; for Emax (%) / Emax: maximum % effect in concentration-response curve, as percent of response to maximally effective glutamate. The method in brief: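 HEK293A cells stably expressing human mGluR5a (H10H or H12H clones), plated overnight in glutamate-glutamine-free medium, loaded with Ca2+-sensitive dye (e.g. Fluo-4) and read on FDSS.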

Like-named read-outs stand apart in the source and are kept apart here.

T1 sequence (P41594 21-1180 isoform P41594-2 limits assumed): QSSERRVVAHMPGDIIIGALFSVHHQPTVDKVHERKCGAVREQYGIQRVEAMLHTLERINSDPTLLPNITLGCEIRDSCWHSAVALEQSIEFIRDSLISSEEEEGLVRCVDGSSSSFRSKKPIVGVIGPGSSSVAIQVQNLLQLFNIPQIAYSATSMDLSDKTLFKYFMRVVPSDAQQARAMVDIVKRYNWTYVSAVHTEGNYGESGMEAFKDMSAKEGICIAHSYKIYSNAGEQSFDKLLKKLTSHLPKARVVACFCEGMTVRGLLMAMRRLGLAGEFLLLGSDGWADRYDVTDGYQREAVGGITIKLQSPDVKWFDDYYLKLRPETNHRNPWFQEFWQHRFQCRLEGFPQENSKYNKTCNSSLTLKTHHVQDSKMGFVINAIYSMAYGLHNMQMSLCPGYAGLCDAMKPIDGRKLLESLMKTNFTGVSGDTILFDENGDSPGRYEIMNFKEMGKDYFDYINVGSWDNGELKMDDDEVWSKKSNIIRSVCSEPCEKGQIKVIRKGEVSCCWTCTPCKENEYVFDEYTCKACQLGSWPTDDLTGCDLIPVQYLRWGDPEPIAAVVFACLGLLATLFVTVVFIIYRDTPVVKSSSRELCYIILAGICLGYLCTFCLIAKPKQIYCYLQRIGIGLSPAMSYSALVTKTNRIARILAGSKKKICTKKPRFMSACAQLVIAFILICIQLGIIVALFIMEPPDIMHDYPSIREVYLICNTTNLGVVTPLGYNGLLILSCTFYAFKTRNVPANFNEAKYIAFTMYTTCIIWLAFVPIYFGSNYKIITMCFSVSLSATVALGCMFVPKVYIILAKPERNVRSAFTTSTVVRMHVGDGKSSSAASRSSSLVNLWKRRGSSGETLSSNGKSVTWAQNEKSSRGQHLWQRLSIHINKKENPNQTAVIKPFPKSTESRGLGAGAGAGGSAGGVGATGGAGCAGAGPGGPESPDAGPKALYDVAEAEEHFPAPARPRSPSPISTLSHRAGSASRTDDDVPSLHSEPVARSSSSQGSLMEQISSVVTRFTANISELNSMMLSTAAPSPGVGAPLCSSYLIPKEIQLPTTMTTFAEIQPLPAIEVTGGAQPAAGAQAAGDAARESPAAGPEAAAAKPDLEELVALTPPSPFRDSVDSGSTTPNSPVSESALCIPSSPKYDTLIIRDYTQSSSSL

On to `Cc1c(COc2ccccc2)nn2c1C(=O)N(c1ccc(F)cc1)CC2` [Example 262], for which the pEC50 is recorded as 6.05 and the “Emax (%)” value was 32%. Besides, the EC50 (read-out: EC50) was determined as 0.891 µM.
`CN(C)c1ccc(N2CCn3nc(COc4ccccc4)cc3C2=O)nn1` [Example 284]: the pEC50 is 5.55 and the “Emax (%)” value is recorded as 53%. For the same compound, under “read-out: EC50”, the EC50 came to 2.82 µM.
Regarding `CC1Cn2nc(COc3ccc(F)cc3)cc2C(=O)N1c1ccc(F)cc1` (stereo not shown) [Example 245], the negative logarithm of the EC50 (pEC50) turned out to be 6.86 and the “Emax (%)” value is 74%. In addition, under “read-out: EC50”, the EC50 was found to be 0.138 µM.
In the case of `CN(C)c1nc(N2CCn3nc(COc4ccccc4)cc3C2=O)ccc1F` [Example 305], the negative-log EC50 (pEC50) is 7.40 and the “Emax (%)” value was determined as 71%. In addition, the EC50 (read-out: EC50) is 0.04 µM.
For `O=C1c2cc(COc3ccccc3)nn2C(F)CN1c1ccc(F)cc1` (racemic) [Example 271] the same measures were 7.05, 66% and 0.089 µM.
On to `CC1CN(c2ccc(F)cn2)C(=O)c2cc(COc3ccccc3)nn21` (single isomer, unassigned) [Example 132], for which the negative logarithm of the EC50 (pEC50) came out at 7.00 and the “Emax (%)” value worked out at 68%. Also, the EC50 (read-out: EC50) stood at 0.1 µM.
Take `O=C1c2cc(COc3ccccc3)nn2CCN1c1ccc2nonc2c1` [Example 375]: the pEC50 was 7.14 and the “Emax (%)” value is reported as 70%. Besides, for the setting “read-out: EC50”, the EC50 is 0.072 µM.
As for `O=C1c2cc(COc3ccccc3)nn2CCN1c1cccnc1` [Example 13], the pEC50 turned out to be 5.73 and the “Emax (%)” value is on record as 64%. Besides, the EC50 (read-out: EC50) worked out at 1.86 µM.
For `O=C1c2cc(COc3ccccc3)nn2CCN1c1cccc(N2CCCC2)n1` [Example 281] the same measures were 6.58, 68% and 0.263 µM.
For the compound `Cc1cncc(N2CCn3nc(COc4ccccc4)cc3C2=O)n1` [Example 92], the negative-log EC50 (pEC50) is 6.51 and the “Emax (%)” value came to 71%. For the same compound, the EC50 (read-out: EC50) is 0.309 µM.
In the case of `O=C1c2cc(COc3ccc(F)cc3)nn2CCN1CC1CC1` [Example 167], the pEC50 was determined as 6.58 and the “Emax (%)” value was 64%. Moreover, the EC50 (read-out: EC50) came out at 0.263 µM.
For `CN(C)c1cccc(N2CCn3nc(COc4ccccn4)cc3C2=O)n1` [Example 313] the same measures were 6.75, 74% and 0.178 µM.
For `Cc1nccc(OCc2cc3n(n2)CCN(c2ccc(F)cc2)C3=O)n1` [Example 182] the same measures were 5.49, 36% and 3.24 µM.
`CC1CN(CC2CC2)C(=O)c2cc(COc3ccccc3)nn21` (single isomer, unassigned) [Example 128]: the pEC50 came out at 6.85 and the “Emax (%)” value was 66%. Further, the EC50 (read-out: EC50) is 0.141 µM.
With `O=C1c2cc(COc3ccccc3)nn2CCN1c1ccc2scnc2c1` [Example 361], the pEC50 amounted to 7.14 and the “Emax (%)” value was 66%. For the same compound, the EC50 (read-out: EC50) is 0.072 µM.
As to `O=C1c2cc(COc3ccccc3)nn2CCN1c1ccc(F)c2ccccc12` [Example 368], the Emax turned out to be 69%. For the same compound, for the setting “read-out: pEC50 (converted)”, the EC50 is 0.0129 µM.
As for `CC1CN(c2ccc(F)cc2)C(=O)c2cc(COc3cccc(F)c3)nn21` (single isomer, unassigned) [Example 239], the pEC50 is listed as 7.21 and the “Emax (%)” value is on record as 72%. In addition, for the setting “read-out: EC50”, the EC50 worked out at 0.062 µM.
As to `COc1cc(N2CCn3nc(COc4ccc(F)cc4)cc3C2=O)ccc1F` [Example 228], the maximum response (Emax) stood at 65%. In addition, the EC50 (read-out: EC50) came out at 0.12 µM.
For `Cc1nc(N2CC(C)n3nc(COc4ccccc4)cc3C2=O)ccc1F` (single isomer, unassigned) [Example 135], the pEC50 worked out at 7.00 and the “Emax (%)” value was found to be 56%. The EC50 (read-out: EC50) stood at 0.1 µM.
For `Cc1nccc(N2CCn3nc(COc4ccccc4)cc3C2=O)n1` [Example 94], the pEC50 was 6.29 and the “Emax (%)” value was 65%. Under “read-out: EC50”, the EC50 was determined as 0.513 µM.
For `CC1Cn2nc(COc3ccccc3)cc2C(=O)N1c1ccc(F)cc1` (stereo not shown) [Example 142] the same measures were 7.19, 68% and 0.065 µM.
With `COc1cc(OC)nc(N2CCn3nc(COc4ccccc4)cc3C2=O)n1` [Example 127], the negative logarithm of the EC50 (pEC50) came out at 6.68 and the “Emax (%)” value was 63%. The EC50 (read-out: EC50) stood at 0.21 µM.
As to `O=C1c2cc(COc3ccccc3)nn2CC(CO)N1c1ccc(F)cc1` (stereo not shown) [Example 268], the negative-log EC50 (pEC50) is reported as below 5.00 and the “Emax (%)” value was 27%. In addition, the EC50 (read-out: EC50) is above 10 µM.
Regarding `COCc1cc(F)ccc1N1CCn2nc(COc3ccccc3)cc2C1=O` [Example 304], the pEC50 amounted to 6.72 and the “Emax (%)” value is recorded as 77%. Besides, the EC50 (read-out: EC50) was 0.19 µM.
Consider `COc1cncnc1N1CCn2nc(COc3ccccc3)cc2C1=O` [Example 118], for which the pEC50 was 5.69 and the “Emax (%)” value is reported as 67%. Besides, the EC50 (read-out: EC50) came to 2 µM.
On to `Cc1nc2cc(N3CCn4nc(COc5ccccc5)cc4C3=O)ccc2s1` [Example 367], for which the pEC50 was found to be 7.06 and the “Emax (%)” value is given as 60%. Moreover, the EC50 (read-out: EC50) is 0.088 µM.
Turning to `O=C1c2cc(COc3ccccc3)nn2CCN1c1cccc(C2CCOCC2)n1` [Example 274], the pEC50 came out at 5.59 and the “Emax (%)” value is listed as 65%. Where the note is “read-out: EC50”, the EC50 stood at 2.57 µM.
On to `O=C1c2cc(COc3ccccc3)nn2CCN1c1ccc2nccc(Cl)c2c1` [Example 364], for which the negative-log EC50 (pEC50) came out at 7.34 and the “Emax (%)” value amounted to 75%. In addition, for the setting “read-out: EC50”, the EC50 stood at 0.046 µM.
`Cc1ccc(N2CCn3nc(COc4ccc(F)cc4)cc3C2=O)cc1` [Example 222]: the pEC50 came out at 7.11 and the “Emax (%)” value came to 64%. The EC50 (read-out: EC50) came out at 0.076 µM.
Regarding `CNc1cccc(N2CCn3nc(COc4ccccc4)cc3C2=O)n1` [Example 278], the maximal effect (Emax) turned out to be 56%. For the same compound, the EC50 (read-out: EC50) worked out at 0.275 µM.
For `COc1nc(N2CCn3nc(COc4ccccc4)cc3C2=O)ccc1F` [Example 73], the negative-log EC50 (pEC50) is recorded as 7.64 and the “Emax (%)” value worked out at 67%. Also, the EC50 (read-out: EC50) worked out at 0.023 µM.
Turning to `O=C1c2cc(COc3ccccc3)nn2C(CF)CN1c1ccc(F)cc1` (racemic) [Example 264], the pEC50 turned out to be 6.95 and the “Emax (%)” value turned out to be 63%. Also, the EC50 (read-out: EC50) stood at 0.112 µM.
As to `COCCOc1cccc(N2CCn3nc(COc4ccccc4)cc3C2=O)n1` [Example 85], the Emax amounted to 72%. For the same compound, the EC50 (read-out: EC50) was 0.437 µM.
Consider `CN(C)c1cccc(N2CCn3nc(COc4ccc(F)cc4)cc3C2=O)n1` [Example 317], for which the pEC50 amounted to 7.38 and the “Emax (%)” value turned out to be 66%. For the same compound, the EC50 (read-out: EC50) turned out to be 0.042 µM.
As for `Cc1cc(F)cnc1N1CCn2nc(COc3ccccc3)cc2C1=O` [Example 86], the pEC50 is on record as 6.69 and the “Emax (%)” value was 73%. The EC50 (read-out: EC50) was 0.204 µM.
For `Cc1nc2cc(N3CC(C)n4nc(COc5ccccc5)cc4C3=O)ccc2s1` (single isomer, unassigned) [Example 376] the same measures were 7.12, 60% and 0.075 µM.
`O=C1c2cc(COc3ccccc3)nn2CCN1c1ccc(F)cc1F` [Example 3]: the pEC50 amounted to 6.94 and the “Emax (%)” value was 101%. Moreover, where the note is “read-out: EC50”, the EC50 amounted to 0.115 µM.
For `O=C1c2cc(COc3ccccn3)nn2CCN1c1ccc(F)cn1` [Example 172] the same measures were 5.99, 64% and 1.02 µM.
On to `Cc1cc(OCc2cc3n(n2)CCN(c2ccc(F)cc2)C3=O)cc(C)n1` [Example 175], for which the maximal response (Emax) was 22%. Also, the EC50 (read-out: EC50) was above 30.2 µM.
As to `CC1Cn2nc(COc3ccccc3)cc2C(=O)N1` (stereo not shown) [Example 255], the pEC50 is on record as below 5.00 and the “Emax (%)” value is reported as 46%. Moreover, for the setting “read-out: EC50”, the EC50 was above 10 µM.
Take `COc1ccc(N2CCn3nc(COc4ccccc4)cc3C2=O)nc1OC` [Example 301]: the negative logarithm of the EC50 (pEC50) worked out at 7.02 and the “Emax (%)” value was found to be 58%. In addition, under “read-out: EC50”, the EC50 was 0.096 µM.
On to `Cc1ccccc1N1CCn2nc(COc3ccccn3)cc2C1=O` [Example 219], for which the negative-log EC50 (pEC50) is on record as 6.59 and the “Emax (%)” value worked out at 67%. Moreover, for the setting “read-out: EC50”, the EC50 came out at 0.26 µM.
As to `O=C1c2cc(COc3ccccc3)nn2CCN1c1cnc2ccccc2c1` [Example 362], the Emax amounted to 71%. Further, under “read-out: EC50”, the EC50 came out at 0.054 µM.
`O=C1c2nc(COc3ccccc3)nn2CCN1c1ccc(F)cc1` [Example 5]: the pEC50 was 5.59 and the “Emax (%)” value is on record as 73%. Besides, the EC50 (read-out: EC50) worked out at 2.57 µM.
Consider `Cc1ccc2ccc(N3CCn4nc(COc5ccccc5)cc4C3=O)cc2n1` [Example 369], for which the pEC50 turned out to be 6.64 and the “Emax (%)” value was found to be 68%. Besides, under “read-out: EC50”, the EC50 came out at 0.23 µM.
Turning to `O=C1c2cc(COc3ccccc3)nn2CCN1c1ccc2ncncc2c1` [Example 363], the maximal effect (Emax) came out at 65%. In addition, the EC50 (read-out: EC50) was 1.3 µM.
As to `CC1CN(c2ccc(F)cc2)C(=O)c2cc(COc3ccc(F)cc3)nn21` (single isomer, unassigned) [Example 238], the negative-log EC50 (pEC50) turned out to be 6.87 and the “Emax (%)” value is 67%. Moreover, where the note is “read-out: EC50”, the EC50 was 0.135 µM.
Turning to `O=c1c2nc(COc3ccccc3)nn2ccn1-c1ccc(F)cc1` [Example 4], the Emax was determined as 52%. Also, under “read-out: EC50”, the EC50 stood at 0.617 µM.

Broadly, the pEC50 is the negative decadic logarithm of the EC50, by convention in mol/L. By Emax is commonly meant the maximal effect, on the per cent scale that the assay sets.
